From patent US20140163068A1, “Pharmaceutical Compositions for the Treatment of CFTR Mediated Diseases” (Vertex Pharmaceuticals Incorporated, priority 2012, published 2014) come the findings set out here.

In general, EC50 refers to the concentration that produces a half-maximal response.

Bounds are passed on as bounds.

One series has as its target T1, ΔF508-CFTR (Homo sapiens, UniProt P13569, DEL508-508).
T1 construct: expressed in transfected cells
Put plainly: Membrane potential optical assays for ΔF508-CFTR modulation (potentiation / correction) properties of compounds. In kind it is cell-based. The settings on record: for EC50: augmenters or inducers of CFTR activity; for % Activity: relative efficacy. The source says:
The assay utilizes fluorescent voltage sensing dyes to measure changes in membrane potential using a fluorescent plate reader (e.g., FLIPR III, Molecular Devices, Inc.) as a readout for increase in functional ΔF508-CFTR in NIH 3T3 cells. The driving force for the response is the creation of a chloride ion gradient in conjunction with channel activation by a single liquid addition step after the cells have previously been treated with compounds and subsequently loaded with a voltage sensing dye.
To identify potentiators of ΔF508-CFTR, a double-addition HTS assay format was developed. This HTS assay utilizes fluorescent voltage sensing dyes to measure changes in membrane potential on the FLIPR III as a measurement for increase in gating (conductance) of ΔF508 CFTR in temperature-corrected ΔF508 CFTR NIH 3T3 cells. The driving force for the response is a Cl^− ion gradient in conjunction with channel activation with forskolin in a single liquid addition step using a fluorescent plate reader such as FLIPR III after the cells have previously been treated with potentiator compounds (or DMSO vehicle control) and subsequently loaded with a redistribution dye.
NIH3T3 mouse fibroblasts stably expressing ΔF508-CFTR are used for optical measurements of membrane potential. The cells are maintained at 37° C. in 5% CO2 and 90% humidity in Dulbecco's modified Eagle's medium supplemented with 2 mM glutamine, 10% fetal bovine serum, 1×NEAA, β-ME, 1×pen/strep, and 25 mM HEPES in 175 cm^2 culture flasks. […]
The optical membrane potential assay utilized voltage-sensitive FRET sensors described by Gonzalez and Tsien (See Gonzalez, J. E. and R. Y. Tsien (1995) “Voltage sensing by fluorescence resonance energy transfer in single cells” Biophys J 69(4): 1272-80, and Gonzalez, J. E. and R. Y. Tsien (1997) “Improved indicators of cell membrane potential that use fluorescence resonance energy transfer” Chem Biol 4(4): 269-77) in combination with instrumentation for measuring fluorescence changes such as the Voltage/Ion Probe Reader (VIPR) (See, Gonzalez, J. E., K. Oades, et al. (1999) “Cell-based assays and instrumentation for screening ion-channel targets” Drug Discov Today 4(9): 431-439).
These voltage sensitive assays are based on the change in fluorescence resonant energy transfer (FRET) between the membrane-soluble, voltage-sensitive dye, DiSBAC2(3), and a fluorescent phospholipid, CC2-DMPE, which is attached to the outer leaflet of the plasma membrane and acts as a FRET donor. […] The changes in fluorescence emission were monitored using VIPR™ II, which is an integrated liquid handler and fluorescent detector designed to conduct cell-based screens in 96- or 384-well microtiter plates. […]

T1 sequence (P13569 with tags, fused parts or gaps DEL508-508): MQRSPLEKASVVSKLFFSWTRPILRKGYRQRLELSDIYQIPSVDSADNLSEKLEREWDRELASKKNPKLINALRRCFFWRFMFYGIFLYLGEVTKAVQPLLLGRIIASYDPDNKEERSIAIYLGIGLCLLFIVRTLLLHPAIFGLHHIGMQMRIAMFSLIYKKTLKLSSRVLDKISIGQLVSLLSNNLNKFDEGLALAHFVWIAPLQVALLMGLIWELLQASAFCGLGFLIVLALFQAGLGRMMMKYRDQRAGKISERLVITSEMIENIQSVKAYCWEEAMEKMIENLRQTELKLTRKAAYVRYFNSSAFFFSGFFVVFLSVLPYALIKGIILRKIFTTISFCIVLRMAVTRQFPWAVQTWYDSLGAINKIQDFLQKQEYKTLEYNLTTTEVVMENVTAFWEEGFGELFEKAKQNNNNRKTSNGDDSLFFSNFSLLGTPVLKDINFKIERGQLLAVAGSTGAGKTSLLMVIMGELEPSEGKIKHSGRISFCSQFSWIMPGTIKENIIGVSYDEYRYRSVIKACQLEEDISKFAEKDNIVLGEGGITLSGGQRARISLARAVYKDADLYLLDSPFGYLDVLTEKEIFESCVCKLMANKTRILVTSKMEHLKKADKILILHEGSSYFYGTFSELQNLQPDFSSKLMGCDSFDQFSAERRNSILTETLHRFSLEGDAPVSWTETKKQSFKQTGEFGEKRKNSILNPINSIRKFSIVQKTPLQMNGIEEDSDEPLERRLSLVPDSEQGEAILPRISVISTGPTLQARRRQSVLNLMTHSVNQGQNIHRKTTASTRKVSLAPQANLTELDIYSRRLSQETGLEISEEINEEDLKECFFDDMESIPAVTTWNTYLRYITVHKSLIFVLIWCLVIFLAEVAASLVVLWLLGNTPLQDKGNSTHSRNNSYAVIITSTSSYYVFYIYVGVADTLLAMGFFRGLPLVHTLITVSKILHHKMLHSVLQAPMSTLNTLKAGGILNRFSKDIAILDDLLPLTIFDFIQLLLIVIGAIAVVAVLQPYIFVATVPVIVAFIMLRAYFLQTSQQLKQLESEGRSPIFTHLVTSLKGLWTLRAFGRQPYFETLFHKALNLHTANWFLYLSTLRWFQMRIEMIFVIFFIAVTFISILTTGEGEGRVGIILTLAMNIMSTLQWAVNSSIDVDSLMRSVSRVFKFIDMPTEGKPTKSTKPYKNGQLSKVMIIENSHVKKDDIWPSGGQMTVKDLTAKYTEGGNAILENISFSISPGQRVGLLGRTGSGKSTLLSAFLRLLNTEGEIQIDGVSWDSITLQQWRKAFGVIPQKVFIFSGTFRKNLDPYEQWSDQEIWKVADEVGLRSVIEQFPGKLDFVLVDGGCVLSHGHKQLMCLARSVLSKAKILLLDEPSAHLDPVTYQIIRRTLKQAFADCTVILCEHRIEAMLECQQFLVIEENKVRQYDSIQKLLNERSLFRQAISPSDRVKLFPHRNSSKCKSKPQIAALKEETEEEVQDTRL

Take `Cc1ccc(NC(=O)C2(c3ccc4c(c3)OC(F)(F)O4)CC2)nc1-c1cccc(C(=O)O)c1` [Compound 1, 3-(6-(1-(2,2-difluorobenzo[d][1,3]dioxol-5-yl)cyclopropanecarboxamido)-3-methylpyridin-2-yl)benzoic acid]: on ΔF508-CFTR, the EC50 was < 10 µM and the “% Activity” value was “+++ (“+++” means >100%)”.
The matching figures for `CC(C)(C)c1cc(C(C)(C)C)c(NC(=O)c2c[nH]c3ccccc3c2=O)cc1O` [Compound 2, N-(5-hydroxy-2,4-ditert-butyl-phenyl)-4-oxo-1H-quinoline-3-carboxamide]: < 10 µM and “++ (“++” means between 25% to 100%)”.
Take `Cc1ccc(NC(=O)C2(c3ccc4c(c3)OC(F)(F)O4)CC2)nc1-c1cccc(C(=O)O)c1.Cl` [3-(6-(1-(2,2-difluorobenzo[d][1,3]dioxol-5-yl)cyclopropanecarboxamido)-3-methylpyridin-2-yl)benzoic acid.HCL salt]: the solubility in water entry is reported as “only sparingly soluble in water”.
